Test results as given in publication PMC9379334, “Determination of ceftriaxone in human plasma using liquid chromatography–tandem mass spectrometry” (Wellcome Open Research, 2022).
Read-outs that look alike come from different tables or passages of the source.

Columns and labels:
[1] = Stability of ceftriaxone in acidic (pH about 2) and neutral pH dilutions; details: +4°C
[2] = Stability of extracted samples in the LC autosampler at 10°C; format: physicochemical, human
[3] = cited from earlier work
[4] = Stability of ceftriaxone stock and working solutions; details: for Stock solution stability: stock solution 10 mg/ml in water; for Working solution stability: weakest working solution 50 µg/ml
Protocol: (§1) Stock solution 10 mg/ml was evaluated at -80°C and at +4°C for 5 days, and in room temperature (+24°C) for 8 hrs. The lowest concentration of working solution 50 µg/ml was also evaluated at -80°C for 5 days and at room temperature (24°C) for 5 hrs. Spiked plasma stored at ambient temperature and at 4°C for 48 h was used to evaluate short-term stability. Long-term stability of spiked samples at -80°C was evaluated after 7 months. Freeze-thaw stability was evaluated for plasma samples and haemolysed plasma samples for five cycles. The samples were stored at -80°C for 24 h followed by unassisted thawing at room temperature for 2–3 h and subsequent re-freezing at -80°C. The stability of precipitated samples stored at ambient temperature (about 23°C) for 4 h was also evaluated. The stability of extracted samples in the LC autosampler kept at 10°C was evaluated by re-injecting the calibrators and QC samples 65 h after initial injection. The acceptance criteria for stability was achieved when the RSD of stability samples was below ±15%, and the accuracy of mean concentrations was within ±15% of nominal concentration.
(§2) The stability samples were quantified using a calibration curve in CPD plasma. Stability samples in CPD plasma were compared to the average measured concentration of CPD QC samples added in the same run. The CPD calibration curve was also used to quantify heparin and EDTA stability samples due to limited supply of volunteer donor blood. However, since EDTA and heparin have different recovery from plasma compared to CPD, a direct comparison would be biased. Thus, stability samples were instead compared with the average measured concentration of the precision and accuracy of each anticoagulant.

[5] = Stability of ceftriaxone in spiked human plasma under different storage conditions (LC-MS/MS); format: physicochemical; details: for Stability, Precipitated 4hrs in RT: protein precipitated; for Stability in plasma, F/T cycle 5 / Stability in plasma, F/T cycle 3: freeze -80°C/thaw RT; for Stability in plasma, RT 24 hrs / Stability in plasma, RT 48 hrs: RT about 23°C
Protocol: as §1, §2

[6] = cited from earlier work; remark: listed apart in the source
[7] = QC1, 2.97 µg/ml, CPD haemolysis plasma
[8] = QC1, 2.97 µg/ml, CPD plasma, vs average measured CPD QC concentration in same run
[9] = QC1, 2.97 µg/ml, EDTA plasma, vs average of four precision and accuracy batches
[10] = QC1, 2.97 µg/ml, EDTA plasma, vs average of four precision and accuracy batches for this anticoagulant
[11] = QC1, 2.97 µg/ml, Li-heparin plasma, vs average of four precision and accuracy batches
[12] = QC1, 2.97 µg/ml, Na-heparin haemolysis plasma
[13] = QC1, 2.97 µg/ml, Na-heparin plasma, vs average of four precision and accuracy batches
[14] = QC3, 155 µg/ml, CPD haemolysis plasma
[15] = QC3, 155 µg/ml, CPD plasma, vs average measured CPD QC concentration in same run
[16] = QC3, 155 µg/ml, EDTA plasma, vs average of four precision and accuracy batches
[17] = QC3, 155 µg/ml, Li-heparin plasma, vs average of four precision and accuracy batches
[18] = QC3, 155 µg/ml, Na-heparin haemolysis plasma
[19] = QC3, 155 µg/ml, Na-heparin plasma, vs average of four precision and accuracy batches

In the case of CO/N=C(\C(=O)N[C@@H]1C(=O)N2C(C(=O)O)=C(CSc3nc(=O)c(=O)[nH]n3C)CS[C@H]12)c1csc(N)n1 [ceftriaxone], the Degradation ([1]; 10 mM ammonium formate containing 2% formic acid (pH about 2), dark, 48 hrs) is reported as 95%, the “Remaining of initial concentration” value ([1]; ammonium formate 10 mM with 2% formic acid (pH about 2), 2 days (48 hrs)) is reported as 5% and the “Remaining of initial concentration” value ([1]; ammonium formate 10 mM with 2% formic acid (pH about 2), 3 days) is reported as “less than 1%”. The “Remaining of initial concentration” value ([1]; dilutions in solutions with neutral pH, 2 and 3 days) was 95–100%, the “Variation in QC concentrations” value ([2]; extracted samples in LC autosampler 10°C up to 65 h, full set of calibrators and QC re-injected) was “less than 10%” and the “Loss, original injection vs 65-h injection” value ([2]; extracted samples in LC autosampler 10°C, 65 h) was “about 20%”. The Degradation ([3]; acid hydrolysis with 0.1 M hydrochloric acid, 30 minutes, ref Shrestha et al. 24) was 19.6%, the LC-stability ([3]; post-extraction dilution of samples using 0.5% formic acid in water, ref Herrera-Hidalgo et al. 31) was 4 h and the Stock solution stability ([4]; +4°C for 5 days) was “above 98%”. For the same compound, the Stock solution stability ([4]; -80°C for 5 days) was “above 98%”, the Stock solution stability ([4]; workbench +24°C for 8 hrs) was “above 98%” and the Working solution stability ([4]; -80°C for 5 days) was “about 98%”. For the same compound, the Working solution stability ([4]; workbench +24°C for 5 hrs) was “about 98%”, the “Stability, Precipitated 4hrs in RT” value [5, 7] was 99.3% and the “Stability in plasma, F/T cycle 5” value [5, 7] was 88.4%. For the same compound, the “Stability, Precipitated 4hrs in RT” value [5, 8] was 94.2%, the “Stability in plasma, RT 24 hrs” value [5, 8] was 106% and the “Stability in plasma, RT 48 hrs” value [5, 8] was 100%. The “Stability in plasma, F/T cycle 3” value [5, 8] was 97.7%, the “Stability in plasma, F/T cycle 5” value [5, 8] was 94.0% and the “Stability in plasma, 4°C 24 hrs” value [5, 8] was 102%. For the same compound, the “Stability in plasma, 4°C 48 hrs” value [5, 8] was 103%, the “Stability in plasma, -80°C 224 days” value [5, 8] was 103% and the “Stability, Precipitated 4hrs in RT” value [5, 9] was 98.0%. The “Stability in plasma, RT 24 hrs” value [5, 10] was 105%, the “Stability in plasma, F/T cycle 3” value [5, 9] was 103% and the “Stability in plasma, F/T cycle 5” value [5, 9] was 103%. The “Stability in plasma, -80°C 224 days” value [5, 9] was 95.5%, the “Stability in plasma, 4°C 24 hrs” value [5, 10] was 113% and the “Stability, Precipitated 4hrs in RT” value [5, 11] was 103%. For the same compound, the “Stability in plasma, RT 24 hrs” value ([5]; QC1, 2.97 µg/ml, Li-heparin plasma, vs average of four precision and accuracy batches for this anticoagulant) was 105%, the “Stability in plasma, F/T cycle 3” value [5, 11] was 95.7% and the “Stability in plasma, F/T cycle 5” value [5, 11] was 99.5%. For the same compound, the “Stability in plasma, 4°C 24 hrs” value [5, 11] was 98.3%, the “Stability in plasma, -80°C 224 days” value [5, 11] was 96.0% and the “Stability, Precipitated 4hrs in RT” value [5, 12] was 91.9%. The “Stability in plasma, F/T cycle 3” value [5, 12] was 91.3%, the “Stability in plasma, F/T cycle 5” value [5, 12] was 97.6% and the “Stability, Precipitated 4hrs in RT” value [5, 13] was 96.8%. The “Stability in plasma, RT 24 hrs” value ([5]; QC1, 2.97 µg/ml, Na-heparin plasma, vs average of four precision and accuracy batches for this anticoagulant) was 103%, the “Stability in plasma, F/T cycle 3” value [5, 13] was 100% and the “Stability in plasma, F/T cycle 5” value [5, 13] was 98.7%. For the same compound, the “Stability in plasma, 4°C 24 hrs” value [5, 13] was 109%, the “Stability in plasma, -80°C 224 days” value [5, 13] was 93.7% and the “Stability, Precipitated 4hrs in RT” value [5, 14] was 94.3%. The “Stability in plasma, F/T cycle 5” value [5, 14] was 98.6%, the “Stability, Precipitated 4hrs in RT” value [5, 15] was 101% and the “Stability in plasma, RT 24 hrs” value [5, 15] was 99.8%. For the same compound, the “Stability in plasma, RT 48 hrs” value [5, 15] was 99.6%, the “Stability in plasma, F/T cycle 3” value [5, 15] was 99.1% and the “Stability in plasma, F/T cycle 5” value [5, 15] was 95.0%. For the same compound, the “Stability in plasma, 4°C 24 hrs” value [5, 15] was 101%, the “Stability in plasma, -80°C 224 days” value [5, 15] was 109% and the “Stability, Precipitated 4hrs in RT” value [5, 16] was 90.9%. For the same compound, the “Stability in plasma, F/T cycle 3” value [5, 16] was 97.9%, the “Stability in plasma, F/T cycle 5” value [5, 16] was 95.5% and the “Stability in plasma, 4°C 24 hrs” value [5, 16] was 104%. The “Stability in plasma, -80°C 224 days” value [5, 16] was 92.8%, the “Stability, Precipitated 4hrs in RT” value [5, 17] was 91.4% and the “Stability in plasma, RT 24 hrs” value ([5]; QC3, 155 µg/ml, Li-heparin plasma, vs average of four precision and accuracy batches for this anticoagulant) was 101%. For the same compound, the “Stability in plasma, F/T cycle 3” value [5, 17] was 96.1%, the “Stability in plasma, F/T cycle 5” value [5, 17] was 94.2% and the “Stability in plasma, 4°C 24 hrs” value [5, 17] was 108%. The “Stability in plasma, -80°C 224 days” value [5, 17] was 98.8%, the “Stability, Precipitated 4hrs in RT” value [5, 18] was 88.8% and the “Stability in plasma, F/T cycle 3” value [5, 18] was 90.4%. For the same compound, the “Stability in plasma, F/T cycle 5” value [5, 18] was 88.5%, the “Stability, Precipitated 4hrs in RT” value [5, 19] was 88.2% and the “Stability in plasma, F/T cycle 3” value [5, 19] was 97.5%. For the same compound, the “Stability in plasma, F/T cycle 5” value [5, 19] was 93.7%, the “Stability in plasma, 4°C 24 hrs” value [5, 19] was 106% and the “Stability in plasma, -80°C 224 days” value [5, 19] was 94.5%. The “Stability of protein precipitated samples” value ([5]; ambient temperature (about 23°C) for 4 h prior to transfer to Phree plate) was “good stability”, the “Freeze-thaw stability in plasma” value ([5]; five cycles, QC samples in all anticoagulants, including plasma with moderate haemolysis) was “good stability” and the “Short-term stability in plasma” value ([5]; up to 24 h at ambient temperature (about 23°C) and 4°C in all anticoagulants, CPD plasma up to 48 h) was “confirmed”. For the same compound, the “Mean plasma concentration 24 h after administration” value (shortened to “Mean plasma concentration 24 h”) ([6]; 0.5-g intravenous dose) was 5.3 µg/mL, the “Mean plasma concentration 24 h” value ([6]; 1-g intravenous dose) was 9.3 µg/mL and the “Mean plasma concentration 24 h” value ([6]; 2-g intravenous dose) was 15.1 µg/mL. The “Population mean peak levels” value ([6]; standard 2-g daily dose, critically ill patients with sepsis) was “below 200 μg/ml”.
